Data from US10966957B2, “Method of treating cancer with combinations of histone deacetylase inhibitors (HDAC1) substances” (Research Cancer Institute of America, priority 2011, dated 2021).

Columns and labels:
[1] = test system: cancer deemed no longer treatable by conventional methods; details: cited from earlier work
tyrosine kinase = details: measured in 11 subjects; cited from earlier work
acites tumor cells = details: injected peritoneally; cited from earlier work
[2] = test system: human squamous cell carcinoma line; details: injected interperitoneally; minimal effects on surrounding normal cells; cited from earlier work
patients with cancer = assay type: in vivo, human; details: octreotide subcutaneously at 50-400 mcgs
Excerpt: As of October 2011, 40 patient charts were selected randomly and reviewed. The inclusion criteria were diagnosis of cancer. No patients were excluded. Patients were aged 27 to 83 years. All were diagnosed by their oncologist/physician and were offered standard conventional treatment of surgery, traditional chemotherapy or radiation.
The patients were managed based on unique developed protocols that were designed in correlation with available research studies and clinical trials that implicate using specific natural and synthetic IV therapies. IV therapies are targeted at epigenetic level and consist of antioxidants, quercetin, DCA, sodium phenyl butyrate, and lipoic acid separately or in combination. All patients received one or more of such treatments. […] Doses of each treatment remained the same or close on each treatment, Quercetin was given intravenously at the dose 0.5 to 1.0 gram (50 mg/ml).
The progression of disease was measures during the course of treatment through tumor markers, Imaging studies and markers for cancer growth, necrosis, LDH, and inflammation, CRP, as well as the Natural killer cell activity or lymphocyte count and Circulatory tumor cells.

[3] = test system: refractory solid tumor malignancies; details: cited from earlier work
prostate cancer cells = details: cited from earlier work
[4] = test system: MBT-2 bladder transitional cell carcinoma, B16-F10 melanoma and LL/2 Lewis lung carcinoma; details: depending on concentrations; cited from earlier work

## O=c1c(O)c(-c2ccc(O)c(O)c2)oc2cc(O)cc(O)c12 [Quercetin]
[1]; intravenous
  Dose recommended for phase 2 studies: ≤ 1400 mg/m2
[1]; of 50 patients, metastatic hepatocellular carcinoma and stage 4 metastatic ovarian cancer
  Patients with sustained decreases in unique cancer markers: two
[1]; up to 1700 mg/m2 intravenous for 3 weeks, 50 patients
  Suppression as defined by the radiological criteria of WHO: None of the patients achieved suppression
Tyrosine kinase
  Subjects with a decrease in tyrosine kinase levels: 9
Acites tumor cells
  Increase in lifespan: 20%
[2]
  Inhibition of cancer growth: selective inhibition of cancer growth

## Octreotide
Patients with cancer
  Lowering of IgF-1 by octreotide in the protocols: lowering the IgF-1 significantly

## Sodium phenylbutyrate [SPB]
[3]; oral doses up to 36 grams per day
  Toxicity of oral doses: minimal toxicity
[3]; oral
  Patients with stable disease for more than 6 months while on the drug: 25%
Prostate cancer cells
  Potency relative to phenylacetate: more potent than phenylacetate

## O=C(O)CCCCC1CCSS1 (centres unmarked) [Lipoic acid]
[4]
  Reduction of cell number: 10-50%
